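Assay format: 96-well plates, 48-hour exposure. GI50 marks 50% less growth. TGI: concentration producing complete growth inhibition.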
Legend:
Assay in all cases: NCI-60 cell line screen, 48 h
[1] = tested on: 786-0 renal
[2] = tested on: A498 renal
[3] = tested on: A549 NSCLC
[4] = tested on: ACHN renal
[5] = tested on: BT-549 breast
[6] = tested on: CAKI-1 renal
[7] = tested on: CCRF-CEM leukemia
[8] = tested on: COLO 205 colon
[9] = tested on: DU-145 prostate
[10] = tested on: EKVX NSCLC
[11] = tested on: HCC-2998 colon
[12] = tested on: HCT-116 colon
[13] = tested on: HCT-15 colon
[14] = tested on: HL-60(TB) leukemia
[15] = tested on: HOP-62 NSCLC
[16] = tested on: HOP-92 NSCLC
[17] = tested on: HS 578T breast
[18] = tested on: HT29 colon
[19] = tested on: IGROV1 ovarian
[20] = tested on: K-562 leukemia
[21] = tested on: KM12 colon
[22] = tested on: LOX IMVI melanoma
[23] = tested on: M14 melanoma
[24] = tested on: MALME-3M melanoma
[25] = tested on: MCF7 breast
[26] = tested on: MDA-MB-231 breast
[27] = tested on: MDA-MB-435
[28] = tested on: MOLT-4 leukemia
[29] = tested on: NCI-H226 lung
[30] = tested on: NCI-H23 lung
[31] = tested on: NCI-H460 lung
[32] = tested on: NCI-H522 lung
[33] = tested on: NCI/ADR-RES ovarian
[34] = tested on: OVCAR-3 ovarian
[35] = tested on: OVCAR-4 ovarian
[36] = tested on: OVCAR-5 ovarian
[37] = tested on: OVCAR-8 ovarian
[38] = tested on: PC-3 prostate
[39] = tested on: RPMI-8226 leukemia
[40] = tested on: RXF 393 renal
[41] = tested on: SF-268 CNS
[42] = tested on: SF-295 CNS
[43] = tested on: SF-539 CNS
[44] = tested on: SK-MEL-2 melanoma
[45] = tested on: SK-MEL-28 melanoma
[46] = tested on: SK-MEL-5 melanoma
[47] = tested on: SK-OV-3 ovarian
[48] = tested on: SN12C renal
[49] = tested on: SNB-19 CNS
[50] = tested on: SNB-75 CNS
[51] = tested on: SR leukemia
[52] = tested on: SW-620 colon
[53] = tested on: T-47D breast
[54] = tested on: TK-10 renal
[55] = tested on: U251 CNS
[56] = tested on: UACC-257 melanoma
[57] = tested on: UACC-62 melanoma
[58] = tested on: UO-31 renal

O=C(/C=C/c1ccccc1Cl)Nc1ncc(Cc2cc(Cl)ccc2Cl)s1
GI50 [1]: 5.16 µM | TGI [1]: > 100 µM | GI50 [2]: 0.975 µM | GI50 [3]: 2.09 µM | TGI [3]: > 100 µM | GI50 [4]: 8.28 µM | TGI [4]: > 100 µM | GI50 [5]: 1.15 µM | TGI [5]: 8.4 µM | GI50 [6]: 4.23 µM | TGI [6]: > 100 µM | GI50 [7]: 0.909 µM | TGI [7]: > 100 µM | GI50 [8]: 1.21 µM | TGI [8]: > 31.7 µM | GI50 [9]: 2.04 µM | TGI [9]: > 100 µM | GI50 [10]: 2.4 µM | TGI [10]: > 100 µM | GI50 [11]: 2.71 µM | TGI [11]: > 100 µM | GI50 [12]: 0.939 µM | TGI [12]: > 100 µM | GI50 [13]: 0.634 µM | TGI [13]: > 100 µM | GI50 [14]: 1.24 µM | TGI [14]: 5.7 µM | GI50 [15]: 6.14 µM | TGI [15]: > 100 µM | GI50 [16]: 1.3 µM | GI50 [17]: 1.14 µM | GI50 [18]: 2.46 µM | TGI [18]: > 100 µM | GI50 [19]: 1.31 µM | TGI [19]: > 100 µM | GI50 [20]: 0.406 µM | TGI [20]: > 100 µM | GI50 [21]: 1.21 µM | TGI [21]: > 100 µM | GI50 [22]: 1.85 µM | TGI [22]: > 100 µM | GI50 [23]: 2.04 µM | TGI [23]: > 100 µM | GI50 [24]: 4.54 µM | TGI [24]: > 100 µM | GI50 [25]: 0.674 µM | TGI [25]: > 100 µM | GI50 [26]: 2.66 µM | TGI [26]: > 100 µM | GI50 [27]: 0.263 µM | TGI [27]: 0.79 µM | GI50 [28]: 1.21 µM | TGI [28]: > 100 µM | GI50 [29]: 9.17 µM | TGI [29]: > 100 µM | GI50 [30]: 0.686 µM | TGI [30]: > 100 µM | GI50 [31]: 3.6 µM | TGI [31]: > 100 µM | GI50 [32]: 0.7 µM | TGI [32]: 2.56 µM | GI50 [33]: 2.99 µM | TGI [33]: > 100 µM | GI50 [34]: 3.44 µM | TGI [34]: > 100 µM | GI50 [35]: 21.3 µM | TGI [35]: > 100 µM | GI50 [36]: 2.36 µM | TGI [36]: > 100 µM | GI50 [37]: 4.03 µM | TGI [37]: > 100 µM | GI50 [38]: 3.86 µM | TGI [38]: > 100 µM | GI50 [39]: 1.36 µM | TGI [39]: > 63.8 µM | GI50 [40]: 0.916 µM | TGI [40]: 3.46 µM | GI50 [41]: 12.5 µM | TGI [41]: > 100 µM | GI50 [42]: 2.34 µM | TGI [42]: 71.2 µM | GI50 [43]: 2.79 µM | TGI [43]: 13.6 µM | GI50 [44]: 3.01 µM | TGI [44]: > 100 µM | GI50 [45]: 9.29 µM | TGI [45]: > 100 µM | GI50 [46]: 2.8 µM | TGI [46]: > 100 µM | GI50 [47]: 7.39 µM | TGI [47]: > 100 µM | GI50 [48]: 1.95 µM | TGI [48]: > 100 µM | GI50 [49]: 4.23 µM | TGI [49]: > 100 µM | GI50 [50]: 0.576 µM | TGI [50]: 9.82 µM | GI50 [51]: 0.534 µM | TGI [51]: > 100 µM | GI50 [52]: 1.25 µM | TGI [52]: > 100 µM | GI50 [53]: 6.72 µM | TGI [53]: > 100 µM | GI50 [54]: 7.13 µM | TGI [54]: > 100 µM | GI50 [55]: 2.9 µM | TGI [55]: > 100 µM | GI50 [56]: 9.11 µM | TGI [56]: > 100 µM | GI50 [57]: 3.27 µM | TGI [57]: > 100 µM | GI50 [58]: 6.52 µM | TGI [58]: > 100 µM

— PubChem BioAssay (NCI)
